Results published in PMC6120666 (The EMBO Journal, 2018).

Assays:
Test in all cases: Drug affinity chromatography with c-ponatinib and LC-MS/MS (ponatinib interactome)
Type in all cases: binding
[1] = target: T1, proteins of U2OS cell lysate (Homo sapiens, UniProt P00403); conditions: MT-CO2, Cytochrome c oxidase subunit 2
T1 construct: Proteins enriched by c-ponatinib from U2OS cell lysate; endogenous in cells; host or cells: U2OS cell lysate
How it was run: (§1)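 U2OS cell lysate in NP-40 lysis buffer (2 mg protein per pulldown) was incubated with amine-derivatized NHS beads for 2 h at 4 °C. Bound proteins were washed, eluted with 100 mM formic acid, reduced, alkylated and trypsin-digested, then identified by nano-UPLC–MS/MS on Orbitrap instruments with a 60 min gradient.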

[2] = target: T2, proteins of U2OS cell lysate (Homo sapiens, UniProt Q01082); conditions: SPTBN1, Spectrin beta chain, non-erythrocytic 1
T2 construct: Proteins enriched by c-ponatinib from U2OS cell lysate; endogenous in cells; host or cells: U2OS cell lysate
T2 sequence (Q01082 whole entry): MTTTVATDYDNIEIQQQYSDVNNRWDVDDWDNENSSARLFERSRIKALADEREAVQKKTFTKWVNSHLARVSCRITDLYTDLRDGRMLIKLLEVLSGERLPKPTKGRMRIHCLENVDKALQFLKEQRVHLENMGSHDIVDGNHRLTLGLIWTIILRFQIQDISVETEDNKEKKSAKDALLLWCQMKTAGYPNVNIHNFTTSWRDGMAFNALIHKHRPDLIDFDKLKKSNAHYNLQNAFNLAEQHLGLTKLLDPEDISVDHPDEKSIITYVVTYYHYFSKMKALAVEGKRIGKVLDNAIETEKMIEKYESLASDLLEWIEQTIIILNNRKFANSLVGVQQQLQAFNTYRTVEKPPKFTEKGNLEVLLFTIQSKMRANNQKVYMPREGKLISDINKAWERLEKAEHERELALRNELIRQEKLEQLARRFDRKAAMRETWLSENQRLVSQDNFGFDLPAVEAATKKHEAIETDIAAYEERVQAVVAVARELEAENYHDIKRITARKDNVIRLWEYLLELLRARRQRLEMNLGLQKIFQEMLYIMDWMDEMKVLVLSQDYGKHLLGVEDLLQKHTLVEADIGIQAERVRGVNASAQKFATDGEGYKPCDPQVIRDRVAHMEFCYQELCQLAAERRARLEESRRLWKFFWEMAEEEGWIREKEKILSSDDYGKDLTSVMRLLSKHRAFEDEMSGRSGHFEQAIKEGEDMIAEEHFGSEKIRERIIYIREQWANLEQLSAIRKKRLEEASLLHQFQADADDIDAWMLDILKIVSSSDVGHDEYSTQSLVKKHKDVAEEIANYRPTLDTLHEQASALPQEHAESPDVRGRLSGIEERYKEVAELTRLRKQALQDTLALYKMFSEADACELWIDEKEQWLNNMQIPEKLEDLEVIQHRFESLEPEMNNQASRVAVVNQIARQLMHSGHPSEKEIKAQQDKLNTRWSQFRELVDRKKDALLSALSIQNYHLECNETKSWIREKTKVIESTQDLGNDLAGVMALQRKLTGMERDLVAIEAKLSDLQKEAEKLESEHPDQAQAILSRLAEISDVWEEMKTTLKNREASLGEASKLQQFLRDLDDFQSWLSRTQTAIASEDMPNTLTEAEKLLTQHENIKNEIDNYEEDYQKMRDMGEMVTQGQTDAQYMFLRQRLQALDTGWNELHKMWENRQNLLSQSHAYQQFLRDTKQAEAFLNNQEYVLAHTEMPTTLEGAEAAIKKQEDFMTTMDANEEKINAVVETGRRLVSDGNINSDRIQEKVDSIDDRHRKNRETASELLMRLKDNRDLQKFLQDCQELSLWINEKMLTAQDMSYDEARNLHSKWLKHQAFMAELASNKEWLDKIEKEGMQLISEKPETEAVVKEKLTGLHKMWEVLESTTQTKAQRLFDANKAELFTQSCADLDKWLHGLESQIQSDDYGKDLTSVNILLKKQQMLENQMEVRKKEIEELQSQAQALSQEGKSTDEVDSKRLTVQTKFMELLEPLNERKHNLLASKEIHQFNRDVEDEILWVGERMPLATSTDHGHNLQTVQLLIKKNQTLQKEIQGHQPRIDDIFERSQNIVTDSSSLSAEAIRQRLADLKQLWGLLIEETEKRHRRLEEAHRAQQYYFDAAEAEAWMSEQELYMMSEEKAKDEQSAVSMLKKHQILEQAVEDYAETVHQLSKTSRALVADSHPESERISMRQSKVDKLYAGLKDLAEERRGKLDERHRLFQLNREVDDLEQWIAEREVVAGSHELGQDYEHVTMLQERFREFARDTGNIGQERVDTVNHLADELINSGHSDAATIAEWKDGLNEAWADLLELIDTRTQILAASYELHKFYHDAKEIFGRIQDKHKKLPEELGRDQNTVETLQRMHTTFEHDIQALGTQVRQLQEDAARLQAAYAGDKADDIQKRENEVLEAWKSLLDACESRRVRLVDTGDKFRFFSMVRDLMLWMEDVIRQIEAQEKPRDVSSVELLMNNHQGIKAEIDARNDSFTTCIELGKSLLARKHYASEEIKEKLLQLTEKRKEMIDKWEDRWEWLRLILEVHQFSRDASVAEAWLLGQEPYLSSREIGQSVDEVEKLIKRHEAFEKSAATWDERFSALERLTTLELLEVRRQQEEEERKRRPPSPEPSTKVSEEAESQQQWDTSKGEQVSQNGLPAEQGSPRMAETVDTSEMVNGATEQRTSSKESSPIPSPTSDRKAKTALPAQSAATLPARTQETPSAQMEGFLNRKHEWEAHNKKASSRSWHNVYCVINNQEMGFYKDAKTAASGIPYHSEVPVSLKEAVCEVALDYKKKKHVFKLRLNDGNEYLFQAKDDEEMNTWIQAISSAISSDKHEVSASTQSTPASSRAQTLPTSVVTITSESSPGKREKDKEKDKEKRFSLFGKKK
How it was run: as §1

[3] = target: T3, proteins of U2OS cell lysate (Homo sapiens, UniProt P62249); conditions: RPS16, 40S ribosomal protein S16
T3 construct: Proteins enriched by c-ponatinib from U2OS cell lysate; endogenous in cells; host or cells: U2OS cell lysate
How it was run: as §1

[4] = target: T4, proteins of U2OS cell lysate (Homo sapiens, UniProt P47914); conditions: RPL29, 60S ribosomal protein L29
T4 construct: Proteins enriched by c-ponatinib from U2OS cell lysate; endogenous in cells; host or cells: U2OS cell lysate
How it was run: as §1

[5] = target: T5, proteins of U2OS cell lysate (Homo sapiens, UniProt Q8TEX9); conditions: IPO4, Importin-4
T5 construct: Proteins enriched by c-ponatinib from U2OS cell lysate; endogenous in cells; host or cells: U2OS cell lysate
T5 sequence (Q8TEX9 whole entry): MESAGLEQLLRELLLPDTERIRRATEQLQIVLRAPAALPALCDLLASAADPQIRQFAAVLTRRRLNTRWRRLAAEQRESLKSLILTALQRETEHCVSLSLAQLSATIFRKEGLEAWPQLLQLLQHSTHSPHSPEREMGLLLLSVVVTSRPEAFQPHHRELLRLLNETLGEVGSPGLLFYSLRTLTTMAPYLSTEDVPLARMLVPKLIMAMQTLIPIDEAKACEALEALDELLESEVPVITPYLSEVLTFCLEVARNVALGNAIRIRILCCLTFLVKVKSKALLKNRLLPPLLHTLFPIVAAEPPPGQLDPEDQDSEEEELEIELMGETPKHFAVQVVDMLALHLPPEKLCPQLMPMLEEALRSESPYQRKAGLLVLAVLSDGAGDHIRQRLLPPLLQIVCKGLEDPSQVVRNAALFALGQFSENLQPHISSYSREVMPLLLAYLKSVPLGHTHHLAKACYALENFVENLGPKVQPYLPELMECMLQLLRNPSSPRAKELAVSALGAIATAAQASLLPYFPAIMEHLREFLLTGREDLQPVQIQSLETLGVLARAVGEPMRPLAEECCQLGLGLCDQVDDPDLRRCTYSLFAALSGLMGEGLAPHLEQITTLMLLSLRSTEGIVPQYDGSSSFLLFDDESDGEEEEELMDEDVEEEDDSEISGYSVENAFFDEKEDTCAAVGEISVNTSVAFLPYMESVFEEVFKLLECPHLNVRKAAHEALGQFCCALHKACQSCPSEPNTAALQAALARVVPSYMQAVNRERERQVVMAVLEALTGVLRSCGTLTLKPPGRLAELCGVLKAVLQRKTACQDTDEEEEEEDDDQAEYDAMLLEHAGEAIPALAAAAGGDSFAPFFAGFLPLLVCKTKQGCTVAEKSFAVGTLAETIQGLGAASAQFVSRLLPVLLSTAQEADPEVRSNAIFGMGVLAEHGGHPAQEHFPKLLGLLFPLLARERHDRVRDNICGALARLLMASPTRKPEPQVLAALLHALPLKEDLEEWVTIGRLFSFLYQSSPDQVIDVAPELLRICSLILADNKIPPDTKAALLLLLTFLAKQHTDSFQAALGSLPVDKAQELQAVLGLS
How it was run: as §1

[6] = target: T6, proteins of U2OS cell lysate (Homo sapiens, UniProt P22830); conditions: FECH, Ferrochelatase, mitochondrial
T6 construct: Proteins enriched by c-ponatinib from U2OS cell lysate; endogenous in cells; host or cells: U2OS cell lysate
How it was run: as §1

[7] = target: T7, proteins of U2OS cell lysate (Homo sapiens, UniProt P62906); conditions: RPL10A, 60S ribosomal protein L10a
T7 construct: Proteins enriched by c-ponatinib from U2OS cell lysate; endogenous in cells; host or cells: U2OS cell lysate
How it was run: as §1

[8] = target: T8, proteins of U2OS cell lysate (Homo sapiens, UniProt P28066); conditions: PSMA5, Proteasome subunit alpha type-5
T8 construct: Proteins enriched by c-ponatinib from U2OS cell lysate; endogenous in cells; host or cells: U2OS cell lysate
T8 sequence (P28066 whole entry): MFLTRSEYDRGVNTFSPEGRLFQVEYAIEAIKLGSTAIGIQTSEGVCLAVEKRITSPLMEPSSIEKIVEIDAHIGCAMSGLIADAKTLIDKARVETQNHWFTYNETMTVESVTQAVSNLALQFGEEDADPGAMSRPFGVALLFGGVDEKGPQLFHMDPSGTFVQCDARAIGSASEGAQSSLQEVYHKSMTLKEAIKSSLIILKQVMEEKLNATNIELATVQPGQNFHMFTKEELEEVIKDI
How it was run: as §1

[9] = target: T9, proteins of U2OS cell lysate (Homo sapiens, UniProt P15880); conditions: RPS2, 40S ribosomal protein S2
T9 construct: Proteins enriched by c-ponatinib from U2OS cell lysate; endogenous in cells; host or cells: U2OS cell lysate
How it was run: as §1

[10] = target: T10, proteins of U2OS cell lysate (Homo sapiens, UniProt P31947); conditions: SFN, 14-3-3 protein sigma
T10 construct: Proteins enriched by c-ponatinib from U2OS cell lysate; endogenous in cells; host or cells: U2OS cell lysate
How it was run: as §1

[11] = target: T11, proteins of U2OS cell lysate (Homo sapiens, UniProt P05783); conditions: KRT18, Keratin, type I cytoskeletal 18
T11 construct: Proteins enriched by c-ponatinib from U2OS cell lysate; endogenous in cells; host or cells: U2OS cell lysate
T11 sequence (P05783 whole entry): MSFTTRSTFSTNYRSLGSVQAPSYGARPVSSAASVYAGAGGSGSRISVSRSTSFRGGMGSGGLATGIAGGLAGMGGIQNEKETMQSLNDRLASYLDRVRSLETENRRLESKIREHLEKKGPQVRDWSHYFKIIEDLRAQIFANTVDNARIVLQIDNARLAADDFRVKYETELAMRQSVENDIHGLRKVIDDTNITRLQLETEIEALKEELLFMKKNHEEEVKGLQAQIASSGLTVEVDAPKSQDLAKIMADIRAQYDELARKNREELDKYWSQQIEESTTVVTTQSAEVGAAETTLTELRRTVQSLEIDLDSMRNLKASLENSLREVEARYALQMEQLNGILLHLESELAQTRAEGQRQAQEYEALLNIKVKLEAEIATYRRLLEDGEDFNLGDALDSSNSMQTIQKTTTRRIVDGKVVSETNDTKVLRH
How it was run: as §1

[12] = target: T12, proteins of U2OS cell lysate (Homo sapiens, UniProt P62258); conditions: YWHAE, 14-3-3 protein epsilon
T12 construct: Proteins enriched by c-ponatinib from U2OS cell lysate; endogenous in cells; host or cells: U2OS cell lysate
How it was run: as §1

[13] = target: T13, proteins of U2OS cell lysate (Homo sapiens, UniProt Q9UHD8); conditions: SEPT9, Septin-9
T13 construct: Proteins enriched by c-ponatinib from U2OS cell lysate; endogenous in cells; host or cells: U2OS cell lysate
How it was run: as §1

[14] = target: T14, proteins of U2OS cell lysate (Homo sapiens, UniProt P11142); conditions: HSPA8, Heat shock cognate 71 kDa protein
T14 construct: Proteins enriched by c-ponatinib from U2OS cell lysate; endogenous in cells; host or cells: U2OS cell lysate
How it was run: as §1

[15] = target: T15, proteins of U2OS cell lysate (Homo sapiens, UniProt Q9P2E9); conditions: RRBP1, Ribosome-binding protein 1
T15 construct: Proteins enriched by c-ponatinib from U2OS cell lysate; endogenous in cells; host or cells: U2OS cell lysate
How it was run: as §1

[16] = target: T16, proteins of U2OS cell lysate (Homo sapiens, UniProt P62241); conditions: RPS8, 40S ribosomal protein S8
T16 construct: Proteins enriched by c-ponatinib from U2OS cell lysate; endogenous in cells; host or cells: U2OS cell lysate
How it was run: as §1

[17] = target: T17, proteins of U2OS cell lysate (Homo sapiens, UniProt P07437); conditions: TUBB;TUBB2A, Tubulin beta chain
T17 construct: Proteins enriched by c-ponatinib from U2OS cell lysate; endogenous in cells; host or cells: U2OS cell lysate
How it was run: as §1

[18] = target: T18, proteins of U2OS cell lysate (Homo sapiens, UniProt P50990); conditions: CCT8, T-complex protein 1 subunit theta
T18 construct: Proteins enriched by c-ponatinib from U2OS cell lysate; endogenous in cells; host or cells: U2OS cell lysate
T18 sequence (P50990 whole entry): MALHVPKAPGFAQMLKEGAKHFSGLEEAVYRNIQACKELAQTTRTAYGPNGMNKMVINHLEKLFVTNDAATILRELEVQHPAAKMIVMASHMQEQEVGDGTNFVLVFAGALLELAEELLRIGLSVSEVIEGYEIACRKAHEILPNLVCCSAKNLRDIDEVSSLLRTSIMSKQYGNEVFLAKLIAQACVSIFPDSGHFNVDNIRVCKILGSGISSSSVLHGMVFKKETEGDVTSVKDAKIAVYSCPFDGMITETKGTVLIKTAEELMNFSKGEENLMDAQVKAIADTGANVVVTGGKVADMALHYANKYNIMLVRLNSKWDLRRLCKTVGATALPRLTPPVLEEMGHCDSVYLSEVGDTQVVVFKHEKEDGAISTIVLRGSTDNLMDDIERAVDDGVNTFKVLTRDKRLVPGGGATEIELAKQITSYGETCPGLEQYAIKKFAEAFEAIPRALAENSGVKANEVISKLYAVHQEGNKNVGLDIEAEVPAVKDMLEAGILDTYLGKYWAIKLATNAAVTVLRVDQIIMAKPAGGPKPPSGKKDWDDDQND
How it was run: as §1

[19] = target: T19, proteins of U2OS cell lysate (Homo sapiens, UniProt P27708); conditions: CAD, CAD protein
T19 construct: Proteins enriched by c-ponatinib from U2OS cell lysate; endogenous in cells; host or cells: U2OS cell lysate
How it was run: as §1

T1 sequence (P00403 whole entry): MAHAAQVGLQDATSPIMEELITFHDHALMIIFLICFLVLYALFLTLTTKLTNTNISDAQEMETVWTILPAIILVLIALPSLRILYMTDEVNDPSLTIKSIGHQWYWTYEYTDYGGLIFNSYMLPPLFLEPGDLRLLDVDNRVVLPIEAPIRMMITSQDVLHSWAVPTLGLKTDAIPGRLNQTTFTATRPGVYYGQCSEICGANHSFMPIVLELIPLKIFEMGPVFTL

Structure (SMILES): Cc1ccc(C(=O)Nc2ccc(CN3CCN(C)CC3)c(C(F)(F)F)c2)cc1C#Cc1cnc2cccnn12 [PON]
- Average LFQ PON_WT [1]: 20.775
- Average LFQ PON_WT [2]: 25.171
- Average LFQ PON_WT [3]: 20.8259
- Average LFQ PON_WT [4]: 19.934
- Average LFQ PON_WT [5]: 20.7176
- Average LFQ PON_WT [6]: 25.7972
- Average LFQ PON_WT [7]: 19.7018
- Average LFQ PON_WT [8]: 20.0873
- Average LFQ PON_WT [9]: 20.865
- Average LFQ PON_WT [10]: 23.8618
- Average LFQ PON_WT [11]: 23.283
- Average LFQ PON_WT [12]: 21.3893
- Average LFQ PON_WT [13]: 23.3795
- Average LFQ PON_WT [14]: 27.1657
- Average LFQ PON_WT [15]: 20.1458
- Average LFQ PON_WT [16]: 19.8524
- Average LFQ PON_WT [17]: 24.4278
- Average LFQ PON_WT [18]: 24.1007
- Average LFQ PON_WT [19]: 21.3466
